Measurements taken from patent publication US6150385A, “1,3,4-thiadiazoles useful for the treatment of CMV infections” (Pharmacia & Upjohn Company, priority 1999, dated 2000).

Target: T1, HCMV polymerase (Human cytomegalovirus, UniProt P08546)
T1 construct: made in house; host or cells: SF-9 insect cells infected with recombinant baculovirus
Assay: HCMV polymerase assay (scintillation proximity assay)
Assay type: biochemical
Settings: percentage of inhibition at 25 μM concentration in CMV polymerase assay
In short: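 Baculovirus/SF-9-expressed HCMV polymerase in 5.4 mM HEPES pH 7.5, 11.7 mM KCl, 4.5 mM MgCl2, 0.36 mg/ml BSA, 90 nM 3H-dTTP, with or without 2 mM CHAPS. Started with 6 nM biotinylated poly(dA)-oligo(dT), 30 min at 25 or 37 °C, EDTA-stopped, read by streptavidin-SPA counting; % inhibition at 25 μM.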

T1 sequence (P08546 whole entry): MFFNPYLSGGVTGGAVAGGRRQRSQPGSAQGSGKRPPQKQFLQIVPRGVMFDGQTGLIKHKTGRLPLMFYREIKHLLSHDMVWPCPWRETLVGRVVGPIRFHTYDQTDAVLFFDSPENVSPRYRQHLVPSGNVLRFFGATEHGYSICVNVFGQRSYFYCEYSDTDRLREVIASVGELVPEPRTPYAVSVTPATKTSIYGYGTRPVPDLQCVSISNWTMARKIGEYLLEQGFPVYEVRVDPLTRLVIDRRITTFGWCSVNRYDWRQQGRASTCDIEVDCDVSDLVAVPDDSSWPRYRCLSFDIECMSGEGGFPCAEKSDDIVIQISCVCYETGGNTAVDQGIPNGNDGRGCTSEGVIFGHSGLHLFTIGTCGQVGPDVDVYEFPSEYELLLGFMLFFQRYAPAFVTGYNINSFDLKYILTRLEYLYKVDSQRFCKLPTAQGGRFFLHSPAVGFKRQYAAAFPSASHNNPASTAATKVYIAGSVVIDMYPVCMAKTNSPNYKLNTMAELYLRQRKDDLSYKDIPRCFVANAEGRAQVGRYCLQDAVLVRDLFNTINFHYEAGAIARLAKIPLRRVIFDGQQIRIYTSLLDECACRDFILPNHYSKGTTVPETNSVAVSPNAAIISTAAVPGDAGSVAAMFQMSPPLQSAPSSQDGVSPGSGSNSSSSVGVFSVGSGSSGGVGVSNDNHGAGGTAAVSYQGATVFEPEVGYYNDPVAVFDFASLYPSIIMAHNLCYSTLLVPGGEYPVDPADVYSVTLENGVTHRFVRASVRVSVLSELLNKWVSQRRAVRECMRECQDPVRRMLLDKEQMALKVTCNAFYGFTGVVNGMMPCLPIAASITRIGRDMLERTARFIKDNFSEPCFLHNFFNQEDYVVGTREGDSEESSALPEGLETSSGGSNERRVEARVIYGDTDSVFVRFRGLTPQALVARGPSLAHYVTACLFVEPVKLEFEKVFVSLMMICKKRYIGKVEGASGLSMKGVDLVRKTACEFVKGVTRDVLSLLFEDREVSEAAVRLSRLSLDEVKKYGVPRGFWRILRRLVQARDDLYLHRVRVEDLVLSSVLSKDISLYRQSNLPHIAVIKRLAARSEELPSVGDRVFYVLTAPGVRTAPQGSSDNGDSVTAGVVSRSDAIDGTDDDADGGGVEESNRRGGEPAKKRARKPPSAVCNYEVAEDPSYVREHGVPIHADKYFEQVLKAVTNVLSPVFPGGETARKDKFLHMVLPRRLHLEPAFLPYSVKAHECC

| SMILES | inhibition at 25 µM | % Inhib |
| --- | --- | --- |
| CCOc1ccc2ccccc2c1C(=O)Nc1nnc(NCC2CC2)s1 [compound 177, N-{5-[(cyclopropylmethyl)amino]-1,3,4-thiadiazol-2-yl}-2-ethoxy-1-naphthamide] | 49% |  |
| CCOc1ccc2ccccc2c1C(=O)Nc1nnc(NC2CCCCCC2)s1 [compound 157, N-[5-(cycloheptylamino)-1,3,4-thiadiazol-2-yl]-2-ethoxy-1-naphthamide] | 53% |  |
| O=C(Nc1nnc(NCCc2ccccc2)s1)c1ccc(S(=O)(=O)F)cc1 [compound 472, 4-({[5-(phenethylamino)-1,3,4-thiadiazol-2-yl]amino}carbonyl)benzenesulfonyl fluoride] |  | 20.0% |
| CCCCCCCC/C=C/CCCCCCCC(=O)Nc1nnc(NCc2ccccn2)s1 [compound 171, (E)-N-{5-[(2-pyridinylmethyl)amino]-1,3,4-thiadiazol-2-yl}-9-octadecenamide] | 49.9% |  |
| O=C(CCCCCl)Nc1nnc(NCc2ccc3c(c2)OCO3)s1 [compound 165, N-{5-[(1,3-benzodioxol-5-ylmethyl)amino]-1,3,4-thiadiazol-2-yl}-5-chloropentanamide] | 51.3% |  |
| CCCCCCCC/C=C/CCCCCCCC(=O)Nc1nnc(NCc2cccc3ccccc23)s1 [compound 119, (E)-N-{5-[(1-naphthylmethyl)amino]-1,3,4-thiadiazol-2-yl}-9-octadecenamide] | 60.6% |  |
| O=C(Nc1nnc(NC2CCc3ccccc32)s1)c1c(Cl)cccc1Cl (stereo not shown) [compound 115, 2,6-dichloro-N-[5-(2,3-dihydro-1H-inden-1-ylamino)-1,3,4-thiadiazol-2-yl]benzamide] | 62% |  |
| CCSCCNc1nnc(NC(=O)/C=C/c2ccccc2Cl)s1 [compound 193, (E)-3-(2-chlorophenyl)-N-(5-{[2-(ethylsulfanyl)ethyl]amino}-1,3,4-thiadiazol-2-yl)-2-propenamide] | 46.9% |  |
| O=C(Nc1nnc(NCc2ccncc2)s1)c1cc2ccccc2s1 [compound 222, N-{5-[(4-pyridinylmethyl)amino]-1,3,4-thiadiazol-2-yl}-1-benzothiophene-2-carboxamide] | 43.2% |  |
| CCCCCCCC/C=C/CCCCCCCC(=O)Nc1nnc(NCc2ccc(OC)c(OC)c2)s1 [compound 100, (E)-N-{5-[(3,4-dimethoxybenzyl)amino]-1,3,4-thiadiazol-2-yl}-9-octadecenamide] | 65.1% |  |
| O=C(Nc1nnc(NCCCNC2CCCCC2)s1)c1c(Cl)cccc1Cl [compound 37, 2,6-dichloro-N-(5-{[3-(cyclohexylamino)propyl]amino}-1,3,4-thiadiazol-2-yl)benzamide] | 87.4% |  |
| N#Cc1ccc(C(=O)Nc2nnc(NCc3cccc4ccccc34)s2)cc1 [compound 155, 4-cyano-N-{5-[(1-naphthylmethyl)amino]-1,3,4-thiadiazol-2-yl}benzamide] | 53.3% |  |
| O=C(Nc1nnc(NC2CCCc3ccccc32)s1)c1ccc2c(c1)C(=O)OC2=O (stereo not shown) [compound 21, 1,3-dioxo-N-[5-(1,2,3,4-tetrahydro-1-naphthalenylamino)-1,3,4-thiadiazol-2-yl]-1,3-dihydro-2-benzofuran-5-carboxamide] | 97.4% |  |
| O=C(/C=C/c1ccccc1Cl)Nc1nnc(NC2CCN(Cc3ccccc3)CC2)s1 [compound 110, (E)-N-{5-[(1-benzyl-4-piperidinyl)amino]-1,3,4-thiadiazol-2-yl}-3-(2-chlorophenyl)-2-propenamide] | 62.9% |  |
| CCOc1ccc2ccccc2c1C(=O)Nc1nnc(NC2CCc3ccccc32)s1 (stereo not shown) [compound 95, N-[5-(2,3-dihydro-1H-inden-1-ylamino)-1,3,4-thiadiazol-2-yl]-2-ethoxy-1-naphthamide] | 65.9% |  |
| CC(C)(C)OC(=O)CCNc1nnc(NC(=O)/C=C/c2ccccc2)s1 [compound 120, tert-butyl 3-[(5-{[(E)-3-phenyl-2-propenoyl]amino}-1,3,4-thiadiazol-2-yl)amino]propanoate] | 60% |  |
| O=C(/C=C/c1ccccc1Cl)Nc1nnc(NCc2ccccn2)s1 [compound 161, (E)-3-(2-chlorophenyl)-N-{5-[(2-pyridinylmethyl)amino]-1,3,4-thiadiazol-2-yl}-2-propenamide] | 51.9% |  |
| O=C(Nc1nnc(NCCCNC2CCCCC2)s1)c1ccc(Br)cc1 [compound 159, 4-bromo-N-(5-{[3-(cyclohexylamino)propyl]amino}-1,3,4-thiadiazol-2-yl)benzamide] | 52.8% |  |
| O=C(Nc1nnc(NCc2cccnc2)s1)c1c(Cl)cccc1Cl [compound 156, 2,6-dichloro-N-{5-[(3-pyridinylmethyl)amino]-1,3,4-thiadiazol-2-yl}benzamide] | 53.2% |  |
| CCCCCCCC/C=C/CCCCCCCC(=O)Nc1nnc(NCCC(c2ccccc2)c2ccccc2)s1 [compound 64, (E)-N-{5-[(3,3-diphenylpropyl)amino]-1,3,4-thiadiazol-2-yl}-9-octadecenamide] | 73.6% |  |
| O=C(Nc1nnc(NC2CCN(Cc3ccccc3)CC2)s1)c1ccc(S(=O)(=O)F)cc1 [compound 460, 4-[({5-[(1-benzyl-4-piperidinyl)amino]-1,3,4-thiadiazol-2-yl}amino)carbonyl]benzenesulfonyl fluoride] |  | 20.7% |
| O=C(Nc1nnc(NCc2cccc3ccccc23)s1)c1ccc2c(c1)C(=O)OC2=O [compound 8, N-{5-[(1-naphthylmethyl)amino]-1,3,4-thiadiazol-2-yl}-1,3-dioxo-1,3-dihydro-2-benzofuran-5-carboxamide] | 99.8% |  |
| CCCCCCCC/C=C/CCCCCCCC(=O)Nc1nnc(NCCSCC)s1 [compound 129, (E)-N-(5-{[2-(ethylsulfanyl)ethyl]amino}1,3,4-thiadiazol-2-yl)-9-octadecenamide] | 58.3% |  |
| N#Cc1ccc(C(=O)Nc2nnc(NCCC(c3ccccc3)c3ccccc3)s2)cc1 [compound 46, 4-cyano-N-{5-[(3,3-diphenylpropyl)amino]-1,3,4-thiadiazol-2-yl}benzamide] | 82.3% |  |
| CCSCCNc1nnc(NC(=O)/C=C/c2ccccc2)s1 [compound 211, (E)-N-(5-{[2-(ethylsulfanyl)ethyl]amino}-1,3,4-thiadiazol-2-yl)-3-phenyl-2-propenamide] | 44.3% |  |
| O=C(/C=C/c1ccccc1)Nc1nnc(NCCc2c[nH]cn2)s1 [compound 215, (E)-N-(5-{[2-(1H-imidazol-4-yl)ethyl]amino}-1,3,4-thiadiazol-2-yl)-3-phenyl-2-propenamide] | 44.1% |  |

Now from value to molecule, other results behind:

| inhibition at 25 µM | SMILES | % Inhib |
| --- | --- | --- |
| 28.8% | O=C(Nc1nnc(NCc2cccc3ccccc23)s1)c1cc(F)cc(F)c1 [compound 362, 3,5-difluoro-N-{5-[(1-naphthylmethyl)amino]-1,3,4-thiadiazol-2-yl}benzamide] |  |
| 35.7% | O=C(Nc1nnc(NCCNc2ccccc2)s1)c1cccc([N+](=O)[O-])c1 [compound 291, N-{5-[(2-anilinoethyl)amino]-1,3,4-thiadiazol-2-yl}-3-nitrobenzamide] |  |
| 30.2% | O=C(/C=C/c1ccccc1Cl)Nc1nnc(NCc2ccncc2)s1 [compound 352, (E)-3-(2-chlorophenyl)-N-[5-[(4-pyridinylmethyl)amino]-1,3,4-thiadiazol-2-yl}-2-propenamide] |  |
| 40% | O=C(CCCCCl)Nc1nnc(NCCSc2ccccc2)s1 [compound 254, 5-chloro-N-(5-{[2-(phenylsulfanyl)ethyl]amino]-1,3,4-thiadiazol-2-yl)pentanamide] |  |
| 40.2% | O=C(Nc1nnc(NCCc2c[nH]c3ccccc23)s1)c1ccc(I)cc1 [compound 252, N-(5-{[2-(1H-indol-3-yl)ethyl]amino}-1,3,4-thiadiazol-2-yl)-4-iodobenzamide] |  |
| 34.8% | O=C(Nc1nnc(NCc2cccnc2)s1)c1cc2ccccc2s1 [compound 301, N-{5-[(3-pyridinylmethyl)amino]-1,3,4-thiadiazol-2-yl}-1-benzothiophene-2-carboxamide] |  |
| 33.6% | CCOc1ccc2ccccc2c1C(=O)Nc1nnc(NCCSCC)s1 [compound 318, 2-ethoxy-N-(5-{[2-(ethylsulfanyl)ethyl]amino}-1,3,4-thiadiazol-2-yl)-1-naphthamide] |  |
| 36.7% | CCCCCCCC/C=C/CCCCCCCC(=O)Nc1nnc(NCC2CCCCC2)s1 [compound 285, (E)-N-{5-[(cyclohexylmethyl)amino]-1,3,4-thiadiazol-2-yl}-9-octadecenamide] |  |
| 25.9% | CC(C)c1cc(C(C)C)c(C(=O)Nc2nnc(NCCc3cccs3)s2)c(C(C)C)c1 [compound 396, 2,4,6-triisopropyl-N-(5-{[2-(2-thienyl)ethyl]amino}-1,3,4-thiadiazol-2-yl)benzamide] |  |
| 24.4% | O=C(Nc1nnc(NCc2cccnc2)s1)c1ccc(Cl)c(Cl)c1 [compound 417, 3,4-dichloro-N-{5-[(3-pyridinylmethyl)amino]-1,3,4-thiadiazol-2-yl}benzamide] |  |
| 21.9% | CC(C)c1cc(C(C)C)c(C(=O)Nc2nnc(NCCN(C)C)s2)c(C(C)C)c1 [compound 444, N-(5-{[2-(dimethylamino)ethyl]amino}-1,3,4-thiadiazol-2-yl)-2,4,6-triisopropylbenzamide] |  |
| 41.5% | CCCCCCCC/C=C/CCCCCCCC(=O)Nc1nnc(NCc2ccco2)s1 [compound 238, (E)-N-{5-[(2-furylmethyl)amino]-1,3,4-thiadiazol-2-yl}-9-octadecenamide] |  |
| 27.5% | O=C(/C=C/c1ccccc1)Nc1nnc(NCCNc2ccccc2)s1 [compound 379, (E)-N-{5-[(2-anilinoethyl)amino]-1,3,4-thiadiazol-2-yl}-3-phenyl-2-propenamide] |  |
| 24.7% | O=C(Nc1nnc(NCCCCc2ccccc2)s1)c1cccc([N+](=O)[O-])c1 [compound 413, 3-nitro-N-{5-[(4-phenylbutyl)amino]-1,3,4-thiadiazol-2-yl}benzamide] |  |
